PubChem BioAssay (NCI)
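Cells were grown in 96-well plates and exposed to each compound for 48 hours at five concentrations; endpoints were interpolated linearly between bracketing concentrations, or set to the highest concentration if not reached. Here, GI50 denotes the concentration required for 50% inhibition of growth. TGI marks complete inhibition of growth.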

What was measured:
Assay in all cases: growth of human tumour cells (NCI), 48 h
[1] = test system: T-47D breast
[2] = test system: SW-620 colon
[3] = test system: HCC-2998 colon
[4] = test system: MDA-MB-231 breast
[5] = test system: M19-MEL melanoma
[6] = test system: LXFL 529 NSCLC
[7] = test system: SNB-78 CNS
[8] = test system: KM20L2 colon
[9] = test system: DMS 273 small cell lung

Row | SMILES | GI50 [1] | TGI [1] | GI50 [2] | TGI [2] | GI50 [3] | TGI [3] | GI50 [4] | TGI [4] | TGI [5] | TGI [6] | TGI [7] | TGI [8] | TGI [9] | GI50 [5] | GI50 [6] | GI50 [9] | GI50 [7] | GI50 [8]
1 | CN(C)c1ccc(/C=N/NC(=O)CSc2nc3sc4c(c3c(=O)n2-c2ccccc2)CCCCC4)cc1 | > 100 µM | > 100 µM | 3.56 µM | > 100 µM | 7.5 µM | > 100 µM | 2.89 µM | 18 µM | – | – | – | – | – | – | – | – | – | –
2 | C[C@]12CC/C(=N\O)C[C@@H]1CC[C@@H]1[C@@H]2CC[C@]2(C)/C(=N/O)CC[C@@H]12 | > 100 µM | > 100 µM | 57.1 µM | > 100 µM | – | – | 26 µM | 73.8 µM | – | – | – | – | – | – | – | – | – | –
3 | N=C(N)c1ccc(CS(=O)(=O)F)cc1 | > 100 µM | > 100 µM | > 100 µM | > 100 µM | > 100 µM | > 100 µM | > 100 µM | > 100 µM | – | – | – | – | – | – | – | – | – | –
4 | C/C(=N\NC(=O)C[n+]1ccccc1)c1sc(-c2nc(C)c(/C(C)=N/NC(=O)C[n+]3ccccc3)s2)nc1C | – | – | – | > 100 µM | – | > 100 µM | – | – | > 100 µM | > 100 µM | > 100 µM | > 100 µM | – | – | – | – | – | –
5 | N#Cc1c(N)n(C2OC(CO)C(O)C2O)c2ncnc(N)c12 (stereo unspecified) | – | 0.221 µM | – | – | 0.145 µM | 0.509 µM | – | > 8.22 µM | – | – | – | – | – | – | – | – | – | –
6 | S=P(C1CCCCC1)(C1CCCCC1)C(c1cccnc1)N1CCCC1 (stereo unspecified) | – | > 100 µM | – | > 100 µM | – | – | – | 39.1 µM | – | – | – | – | – | – | – | – | – | –
7 | C[C@@]1([C@H](OC(=O)c2cccc3ccccc23)C(N)=O)CO1 | 5.31 µM | 24.8 µM | 1.1 µM | – | 4.51 µM | 18.2 µM | 1.27 µM | 9.12 µM | – | – | – | – | – | – | – | – | – | –
8 | COc1ccc(/C=C(/C(=O)N2CCN(c3ccc(C)cc3)CC2)c2cc(OC)c(OC)c(OC)c2)cc1N | – | – | 0.407 µM | > 100 µM | 0.376 µM | > 100 µM | 0.36 µM | > 100 µM | – | – | – | – | – | – | – | – | – | –
9 | CCN(CC)c1ccc(CNc2cc(C)nc3ccc(OC)cc23)cc1 | 1.96 µM | 4.61 µM | 1.75 µM | 3.47 µM | 1.77 µM | 3.32 µM | 2.46 µM | 6.81 µM | – | – | – | – | – | – | – | – | – | –
10 | CN(Cc1ccccc1)c1ncnc2ccc(Br)cc12 | 22 µM | > 100 µM | – | – | 11.9 µM | 26.3 µM | – | – | – | – | – | – | – | – | – | – | – | –
11 | COc1ccc(C(=C(C#N)C#N)c2ccc(OC)cc2)cc1 | – | – | – | > 100 µM | – | > 100 µM | – | – | – | > 100 µM | > 100 µM | > 100 µM | > 100 µM | – | – | – | – | –
12 | CC/C=C\C[C@H](O)C/C=C1/C(=O)C=C[C@@H]1C/C=C\CCCC(=O)OCCS(=O)(=O)c1ccccc1 | 3.76 µM | 18.7 µM | 4.07 µM | 14.9 µM | 1.99 µM | 3.64 µM | 5.34 µM | 20.7 µM | – | – | – | – | – | – | – | – | – | –
13 | [O-]c1ccccc1[C-]=Nc1ccccc1O.[O-]c1ccccc1[C-]=Nc1ccccc1O.[O]=[U]=[O] | – | – | 12.2 µM | 74.5 µM | – | – | – | – | 48.6 µM | 34.8 µM | 61.2 µM | > 100 µM | 59.5 µM | 12.3 µM | 4.11 µM | 13.7 µM | 21.3 µM | 0.856 µM
14 | CN1C(=O)C(C)(C)NS1(=O)=O | – | – | – | > 100 µM | – | > 100 µM | – | – | > 100 µM | > 100 µM | > 100 µM | > 100 µM | > 100 µM | – | – | – | – | –
15 | CC[C@]12C=CCN3CC[C@@]4(c5ccc(OC)cc5N(C)[C@H]4[C@@](O)(C(=O)OC)[C@@H]1OC(=O)CCCC[P+](c1ccccc1)(c1ccccc1)c1ccccc1)[C@@H]32 | 0.396 µM | 12.7 µM | 1.14 µM | 12.6 µM | 0.42 µM | 2.71 µM | 0.414 µM | 1.9 µM | – | – | – | – | – | – | – | – | – | –
16 | O=C1C2=C(C(=O)c3c(O)ccc(O)c31)N(c1cccnc1)Cc1ccccc1O2 | 0.221 µM | 0.635 µM | 0.145 µM | 0.357 µM | 1.52 µM | 3.23 µM | 0.265 µM | 0.876 µM | – | – | – | – | – | – | – | – | – | –
17 | Cc1ccc(C(=O)Nc2ccc(CN3CCN(C)CC3)c(C(F)(F)F)c2)cc1C#Cc1cnc(N)c2ccc(C#N)cc12 | 3.57 µM | > 50 µM | 1.8 µM | > 28.3 µM | 9.41 µM | > 50 µM | 0.23 µM | 2.02 µM | – | – | – | – | – | – | – | – | – | –
18 | CN(C)C(=O)C(NCCO)c1ccccc1 (stereo unspecified) | – | > 100 µM | – | > 100 µM | – | > 100 µM | – | > 100 µM | – | – | – | – | – | – | – | – | – | –
19 | COc1ccc2c3c(ccc2c1)NC(C(=O)O)CC3 (stereo unspecified) | – | 79.1 µM | – | > 100 µM | – | > 100 µM | – | > 100 µM | – | – | – | – | – | – | – | – | – | –
20 | Cc1cc(C)nc(NS(=O)(=O)c2ccc(Nc3nc4nc(NCc5ccccc5)nc(-c5ccc(O)cc5)c4c(=O)[nH]3)cc2)n1 | 18.4 µM | > 100 µM | 26.7 µM | > 100 µM | > 100 µM | > 100 µM | 29.6 µM | > 100 µM | – | – | – | – | – | – | – | – | – | –
21 | C=CC1CC12C(=O)C1OC2(C)C2C(=O)c3c(O)cccc3C(=O)C12 (stereo unspecified) | 31.2 µM | > 100 µM | – | – | 31.1 µM | > 100 µM | 18.7 µM | 59 µM | – | – | – | – | – | – | – | – | – | –
22 | CCCCCCCC(=O)SCC/C=C/[C@@H]1CC(=O)NCc2cccc(n2)C2=N[C@@](C)(CS2)C(=O)N[C@@H](C(C)C)C(=O)O1 | 0.147 µM | 1.6 µM | 0.0921 µM | 3.72 µM | 0.0528 µM | 0.324 µM | 0.119 µM | > 19.8 µM | – | – | – | – | – | – | – | – | – | –
23 | COc1ccc(C(=O)OC2C(OC3C(O)COC(O[C@H]4C[C@H]5[C@@H]6CC=C7C[C@@H](O)CC[C@]7(C)[C@H]6CC[C@]5(C)[C@H]4[C@H](C)C(=O)CCC(C)C)C3OC(=O)C(C)C)OCC(O)C2O)cc1 (stereo partly specified) | 0.0358 µM | 3.08 µM | 0.0125 µM | 0.389 µM | 1.88 µM | 5.79 µM | 0.101 µM | 4.65 µM | – | – | – | – | – | – | – | – | – | –
24 | C=C(c1ccc(OC)c(/C=C/C(=O)c2cc(OC)c(OC)c(OC)c2)c1)c1cc(OC)c(OC)c(OC)c1 | 1.38 µM | 6.12 µM | 0.6 µM | 2.38 µM | 1.84 µM | 3.37 µM | 0.995 µM | > 100 µM | – | – | – | – | – | – | – | – | – | –
25 | COc1ccc(-c2cnc(SCC(=O)c3c(C)n(C)n(-c4ccccc4)c3=O)n2-c2ccc(OC)cc2)cc1 | > 50 µM | > 50 µM | > 50 µM | > 50 µM | 44.9 µM | > 50 µM | > 50 µM | > 50 µM | – | – | – | – | – | – | – | – | – | –
